Broadly, the LD50 is the dose expected to kill half of the subjects tested. Higher therefore signals lower toxicity. One may read the ED50 as the dose at which the effect has come halfway, by size or by number of responders.

The record followed here is US4943570A, “Benzimidazolesulfonamides and imidazopyridinesulfonamides, and their application as drugs” (Laboratorios Del Dr. Esteve, S.A., priority 1986, dated 1990).

Data set [1] in a line: Acute toxicity in mice (Litchfield and Wilcoxon). The class given is in vivo. Particulars: mouse, in vivo, po, administered orally. On the procedure: (§1) Method of Litchfield and Wilcoxon (J. T. Litchfield and E. J. Wilcoxon: J. Pharmacol. Exp. Therap., 96, 19-113 (1949)).
(§2) The product is administered orally as a suspension in gum arabic at a concentration of 5% in double-distilled water. The volume administered is 10 - ml/kg. The 50% lethal dose (LD50) is calculated by the method cited.

In data set [2] the test system is gastric lesions induced by ethanol. Briefly: Gastric cytoprotection: inhibition of gastric lesions induced by ethanol. The class given is in vivo, Male Wistar rats. Conditions: 40 mg/kg oral. On the procedure:
Male Wistar rats weighing 150 to 200 grams are used in this test; they are fasted for 24 hours, but with water "ad libitum". Groups containing a minimum of 5 animals each are used.
At the beginning of the study, the rats receive the products described, or the vehicle in the case of the rats in the control group, by oral administration using a stomach tube. The dose administered for the products described is 40 mg/kg. The vehicle employed is gum arabic at a concentration of 5% w/v in double-distilled water.
Thirty minutes after the treatment, the rats receive 1 ml of absolute ethanol by oral administration using a stomach tube. One hour after the treatment with ethanol, the rats are sacrificed by prolonged anesthesia with ethyl ether, their stomachs are extracted and opened along the greater curvature and the lesions in the stomach mucosa are evaluated. For this evaluation, the hemorrhage points are counted and the size of the necrotic ulcers is measured.
For each product tested, the percentage inhibition of gastric lesions is determined relative to the control group.

The test system of another data set is gastric acid secretion. The data set is described as follows: Inhibition of gastric acid secretion in Shay rats (Shay's method, pylorus ligation). The class given is in vivo, Male Wistar rats. Particulars: Rattus norvegicus, administered intraduodenally; for ED50: 2 h; for inhibition in vivo at 40 mg/kg: intraduodenal, 2 h after pylorus ligation, read-out: Percentage inhibition of gastric acid secretion. The source says:
Shay's method [H. Shay; S. A. Komarov; S. S. Fels; D. Merange: M. Grvenstein; H. Siplet: Gastroenterology, 5, 43 (1945)--F. E. Visscber; P. H. Seay: A. P. Taxelaar; W. Veldkamp; M. J. Vander Brook: J. Pharmac. Exp. Ther., 110, 188 (1954)--"Animal Experiments in Pharmacological Analysis", F. R. Domer: C. C. Thomas, published by Springfield, Ill., U.S.A., 1970, p. 140].
Male Wistar rats weighing 200 to 250 grams are used in this test; they are fasted from the day preceding the day of the test, with free access to water. Groups containing a minimum of 4 animals each are used.
The rats are anesthetized with ethyl ether, a laparotomy is performed on them and their pylorus is ligated; the abdominal incision is then sewn up. The administration of the products, with the vehicle for the control group, is effected intraduodenally (i.d.) before the abdominal incision is sewn up. The dose administered in the first test is 40 mg/kg and the 50% effective dose (ED50), administered intraduodenally, is also determined in a second test. The vehicle used is gum arabic at a concentration of 5% w/v in double-distilled water.
Two hours after ligation of the pylorus, the rats are sacrificed by prolonged anesthesia with ethyl ether and the volume of gastric juice is measured; the total acidity is determined by means of a pH meter equipped with an automatic burette. For each product and each dose tested, the percentage inhibition of gastric acid secretion is determined relative to the control group.

Data set [3] concerns gastric lesions induced by stress due to immobilization and cold. Briefly: Ulcer-inhibiting activity: inhibition of gastric lesions induced by stress due to immobilization and cold. The class given is in vivo, Male Wistar rats. Particulars: 40 mg/kg oral. As for the experimental part:
Male Wistar rats weighing […] to 200 grams are used in this test; they are fasted in individual cages for 24 hours before the study begins, but with water "ad libitum". Groups containing a minimum of 5 animals each are used.
At the start of the study, the rats receive the products described, or alternatively the vehicle in the case of the control group, by oral administration using a stomach tube. The administered dose of the products described is 40 mg/kg. The vehicle used is gum arabic at a concentration of 5% w/v in double-distilled water.
Immediately after the treatment, the rats are introduced into confined enclosures in the form of a plastic tube with a diameter of about 5 cm and a variable length which can be adapted to the size of the rat. One hour after the treatment, the rats, in their enclosures, are placed in a refrigerator at -5° C. for 3 hours. Immediately after exposure to the cold, the rats are killed by prolonged anesthesia with ethyl ether, the stomachs are extracted and opened along the greater curvature and the lesions in the stomach mucosa are evaluated. For this evaluation, the hemorrhage points are counted and the size of the necrotic ulcers is measured.
For each product and each dose tested, the percentage inhibition of gastric lesions is determined relative to the control group.

The subject of a further data set is mice. The data set is described as follows: Acute toxicity in mice (Litchfield and Wilcoxon). Particulars: administered orally; female. The class given is in vivo. On the procedure:
as §1, §2

[4] abbreviates: relative to control (gum arabic).

On to `O=S(=O)(NCCN1CCOCC1)c1nc2ccccc2[nH]1` [Example 6], for which the LD50 in data set [1] (female) was found to be 2600 mg/kg; in data set [1] (male), 3300 mg/kg.

For the molecule `CCN(CC)S(=O)(=O)c1nc2ccc([N+](=O)[O-])cc2n1CC` [Example 71, 6-nitro-1,N,N-triethyl-1H-benzimidazole-2-sulfonamide], the LD50 in data set [1] (female) and in data set [1] (male) was 6400 mg/kg each time.

`O=S1(=O)c2nc3ccccc3n2CCN1CCCN1CCOCC1` [Example 92]: the LD50 in data set [1] (female) and in data set [1] (male) was 6400 mg/kg throughout.

For `O=[N+]([O-])c1ccc2nc3n(c2c1)CCN(CCCN1CCOCC1)S3(=O)=O` [Example 142], the “Evaluation of the lesions (x ± standard deviation)” value in data set [2] amounted to 0. For the same molecule, in data set [2] (setting [4]), the “Inhibition of gastric lesions” value is 100%. In addition, in the data set with gastric acid secretion, the ED50 amounted to 17.5 mg/kg and the inhibition in vivo at 40 mg/kg was 79.4%.

For the molecule `CCN(CC)CCCC(C)N1CCn2c(nc3ccc([N+](=O)[O-])cc32)S1(=O)=O` (centres unmarked) [Example 144, 2H-2-(4-Diethylamino-1-methylbutyl)-3,4-dihydro-7-nitro-[1,2,5,]-thiadiazino[5,6-a]benzimidazole 1,1-dioxide], in the data set with gastric acid secretion, the ED50 turned out to be 10 mg/kg and the inhibition in vivo at 40 mg/kg came to 93.7%. For the same molecule, the “Inhibition of gastric lesions” value in data set [3] (setting [4]) stood at 100%. Also, the “Evaluation of the lesions (x ± standard deviation)” value in data set [3] (stress (immobilization and cold), 10 rats) amounted to 0.

With `O=S(=O)(NCc1ccccn1)c1nc2ccccc2[nH]1` [Example 31, N-(2-Pyridylmethyl)-1H-benzimidazole-2-sulfonamide], the LD50 in data set [1] (female) and in data set [1] (male) was above 6400 mg/kg in each case.

For `CCNS(=O)(=O)c1nc2c([N+](=O)[O-])cccc2[nH]1` [Example 21, N-Ethyl-4-nitro-1H-benzimidazole-2-sulfonamide], the median lethal dose (LD50) in data set [1] (female) and in data set [1] (male) was above 1600 mg/kg in each case.

For the molecule `O=S(=O)(NCCCN1CCOCC1)c1nc2ccccc2[nH]1` [Example 8, N-[3-(4-Morpholinopropyl)]-1H-benzimidazole-2-sulfonamide], the LD50 in data set [1] (female) and in data set [1] (male) was 6400 mg/kg each time.

In the case of `CCCCN1CCn2c(nc3cc([N+](=O)[O-])ccc32)S1(=O)=O` [Example 133, 2H-2-Butyl-3,4-dihydro-8-nitro-[1,2,5]-thiadiazino-[5,6-a]benzimidazole 1,1-dioxide], the LD50 in data set [1] (female) was above 3200 mg/kg. For the same molecule, the LD50 in data set [1] (male) was above 3200 mg/kg. Further, in the data set on gastric acid secretion, the 50% effect level (ED50) was put at a dose of 58.3 mg/kg and the inhibition in vivo at 40 mg/kg worked out at 40%.

The molecule `O=S(=O)(Nc1ccc(Cl)cc1)c1nc2cc(Cl)ccc2[nH]1` [Example 16, 5-Chloro-N-(4-chlorophenyl)-1H-benzimidazoIe-2-sulfonamide] registered an LD50 in data set [1] (female) of 1500 mg/kg. The molecule further showed an LD50 in data set [1] (male) of 2000 mg/kg. For the same molecule, in the data set with gastric acid secretion, the ED50 came to 42.6 mg/kg and the inhibition in vivo at 40 mg/kg is 48%.

In the case of `CCN1C(c2ccc([N+](=O)[O-])cc2)=Cn2c(nc3ccc([N+](=O)[O-])cc32)S1(=O)=O` [Example 179, 2H-2-Ethyl-7-nitro-3-(4-nitrophenyl)-[1,2,5]-thiadiazino-[5,6-a]benzimidazole 1,1-dioxide], the LD50 (in data set [1] (male); in the data set on mice) was above 6400 mg/kg throughout.

As for `O=[N+]([O-])c1ccc2[nH]c(S(=O)(=O)NCCCN3CCOCC3)nc2c1` [Example 38, N-[3-(4-Morpholinopropyl)]-5-nitro-1H-benzimidazole-2-sulfonamide], the LD50 in data set [1] (female) and in data set [1] (male) was above 6400 mg/kg each time.

With `CCN1CCn2c(nc3cc([N+](=O)[O-])ccc32)S1(=O)=O` [Example 128, 3,4-Dihydro-2H-2-ethyl-8-nitro-[1,2,5]-thiadiazino-[5,6-a]benzimidazole 1,1-dioxide], the LD50 in data set [1] (female) was above 3200 mg/kg; in data set [1] (male), above 2200 mg/kg.

Turning to `COc1ccc(CCN2CCn3c(nc4ccccc43)S2(=O)=O)cc1OC` [Example 99, 3,4-Dihydro-2H-2-[2-(3,4-dimethoxyphenylethyl)]-[1,2,5]-thiadiazino[5,6-a]benzimidazole 1,1-dioxide], the LD50 in data set [1] (female) and in data set [1] (male) was above 3200 mg/kg throughout.

`CCN1CCn2c(nc3ccc([N+](=O)[O-])cc32)S1(=O)=O` [Example 127, 3,4-Dihydro-2H-2-ethyl-7-nitro-[1,2,5]-thiadiazino-[5,6-a]benzimidazole 1,1-dioxide] displayed an LD50 in data set [1] (female) above 6400 mg/kg. The molecule further yielded an LD50 in data set [1] (male) above 6400 mg/kg. In the data set on gastric acid secretion, it took a dose of 52.4 mg/kg to reach the 50% effect level (ED50) and the inhibition in vivo at 40 mg/kg came out at 56.3%.

Consider `CCCCN1CCn2c(nc3ccc([N+](=O)[O-])cc32)S1(=O)=O` [Example 134, 2H-2-butyl-3,4-dihydro-7-nitro-[1,2,5]-thiadiazino[5,6-a]benzimidazole 1,1-dioxide], for which the LD50 in data set [1] (female) was above 3200 mg/kg. In data set [1] (male), this molecule gave an LD50 above 3200 mg/kg. In addition, in the data set on gastric acid secretion, the ED50 worked out at 20.7 mg/kg and the inhibition in vivo at 40 mg/kg worked out at 70.3%.

On to `CCN(CC)CCCC(C)NS(=O)(=O)c1nc2cc(Cl)ccc2[nH]1` (centres unmarked) [Example 18, 5-Chloro-N-(4-diethylamino-1-methylbutyl)-1H-benzimidazole-2-sulfonamide], for which, in data set [1] (female), the LD50 was 4000 mg/kg. This molecule also returned an LD50 in data set [1] (male) of 2000 mg/kg. Also, in the data set on gastric acid secretion, the ED50 was found to be 53.5 mg/kg and the inhibition in vivo at 40 mg/kg amounted to 41%.

`NS(=O)(=O)c1nc2cc([N+](=O)[O-])ccc2[nH]1` [Example 34, 5-Nitro-1H-benzimidazole-2-sulfonamide]: the LD50 in data set [1] (female) was above 6400 mg/kg. In data set [1] (male), this molecule yielded an LD50 above 6400 mg/kg. Besides, in the data set with gastric acid secretion, the ED50 was determined as 29.9 mg/kg and the inhibition in vivo at 40 mg/kg came out at 63%.

For `CCCCN1CCn2c(nc3cccnc32)S1(=O)=O` [Example 173, 2H-2-Butyl-3,4-Dihydropyrido[3', 2':4,5]imidazo[1,2-e]-[1,2,5]-thiadiazine 1,1-dioxide], in the data set on gastric acid secretion, the ED50 was 39.2 mg/kg and the inhibition in vivo at 40 mg/kg came to 57.1%.

`O=[N+]([O-])c1ccc2c(c1)nc1n2CCN(CCCN2CCOCC2)S1(=O)=O` [Example 141, 3,4-Dihydro-2H-2-[3-(4-morpholinopropyl)]-8-nitro-[1,2,5]-thiadiazino[5,6-a]benzimidazole 1,1-dioxide]: in the data set with gastric acid secretion, it took a dose of 16.3 mg/kg to reach the 50% effect level (ED50) and the inhibition in vivo at 40 mg/kg was determined as 80.9%.
